This is an account of results in ChEMBL document CHEMBL3616445, “Design, synthesis and biological evaluation of multifunctional ligands targeting opioid and bradykinin 2 receptors” (Bioorg Med Chem Lett, 2015).

One experiment deals with Mu-type opioid receptor (Rattus norvegicus, UniProt P33535). The experiment is described as follows: Displacement of [3H]DAMGO from rat mu opiod receptor. On the technique in general: Loss of bound radioactivity is the signal in a displacement assay; it reports binding, not function.
Sequence of Mu-type opioid receptor (P33535 whole entry): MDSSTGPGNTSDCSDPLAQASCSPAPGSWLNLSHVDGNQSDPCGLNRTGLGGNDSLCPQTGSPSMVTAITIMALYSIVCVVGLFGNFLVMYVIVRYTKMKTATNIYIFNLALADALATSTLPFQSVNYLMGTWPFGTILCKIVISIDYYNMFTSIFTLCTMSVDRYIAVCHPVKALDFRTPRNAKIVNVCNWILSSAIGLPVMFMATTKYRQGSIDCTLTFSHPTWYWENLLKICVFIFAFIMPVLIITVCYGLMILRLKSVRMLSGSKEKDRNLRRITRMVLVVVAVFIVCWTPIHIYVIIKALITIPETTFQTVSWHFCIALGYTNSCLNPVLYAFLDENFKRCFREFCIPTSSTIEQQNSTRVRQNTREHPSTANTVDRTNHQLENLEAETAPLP
Experiment [1] has as its target T1, B2 bradykinin receptor (Rattus norvegicus, UniProt P25023).
T1 sequence (P25023 whole entry): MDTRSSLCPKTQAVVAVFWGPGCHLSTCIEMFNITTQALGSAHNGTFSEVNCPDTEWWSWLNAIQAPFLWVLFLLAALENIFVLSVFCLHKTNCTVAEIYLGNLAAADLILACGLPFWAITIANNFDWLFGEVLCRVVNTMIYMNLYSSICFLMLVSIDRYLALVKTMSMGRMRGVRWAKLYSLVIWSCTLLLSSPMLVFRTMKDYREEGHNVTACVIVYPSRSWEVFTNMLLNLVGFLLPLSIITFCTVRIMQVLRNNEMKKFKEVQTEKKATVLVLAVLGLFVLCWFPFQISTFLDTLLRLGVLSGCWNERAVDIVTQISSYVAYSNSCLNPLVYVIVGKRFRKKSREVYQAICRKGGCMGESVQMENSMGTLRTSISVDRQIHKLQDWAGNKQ
Nature of the experiment: Displacement of [3H]BK from B2R in rat brain membranes by liquid scintillation counting in based radioligand competition assay. It counts as cell membranes, Membrane.

For experiment [2], the target named is Delta-type opioid receptor (Homo sapiens, UniProt P41143). Nature of the experiment: Displacement of [3H]DPDPE from human delta opiod receptor.
Sequence of Delta-type opioid receptor (P41143 whole entry): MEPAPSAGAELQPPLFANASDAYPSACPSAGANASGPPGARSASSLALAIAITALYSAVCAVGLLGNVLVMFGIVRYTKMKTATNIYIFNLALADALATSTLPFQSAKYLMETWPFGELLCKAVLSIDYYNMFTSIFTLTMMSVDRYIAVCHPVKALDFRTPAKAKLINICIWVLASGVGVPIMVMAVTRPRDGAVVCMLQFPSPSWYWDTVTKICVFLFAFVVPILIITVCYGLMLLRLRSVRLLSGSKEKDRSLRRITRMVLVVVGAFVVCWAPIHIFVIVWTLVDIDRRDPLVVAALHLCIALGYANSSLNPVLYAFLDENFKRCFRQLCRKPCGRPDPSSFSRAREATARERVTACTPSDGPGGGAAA
Experiment [3] addresses T2, B2 bradykinin receptor (Cavia porcellus, UniProt O70526).
T2 sequence (O70526 whole entry): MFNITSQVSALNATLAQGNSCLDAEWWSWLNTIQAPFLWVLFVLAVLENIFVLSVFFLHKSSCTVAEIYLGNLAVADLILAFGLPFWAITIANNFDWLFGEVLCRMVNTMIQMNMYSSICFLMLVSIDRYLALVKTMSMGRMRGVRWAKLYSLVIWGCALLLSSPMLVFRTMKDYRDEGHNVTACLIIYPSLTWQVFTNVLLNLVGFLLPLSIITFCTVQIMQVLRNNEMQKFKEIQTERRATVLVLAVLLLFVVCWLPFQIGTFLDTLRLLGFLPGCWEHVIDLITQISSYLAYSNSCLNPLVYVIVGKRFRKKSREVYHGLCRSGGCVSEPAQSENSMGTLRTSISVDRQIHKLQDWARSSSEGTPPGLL
Nature of the experiment: Antagonist activity against B2R in Hartley guinea pig ileum assessed as reduction in electrically-induced response. The experiment is classed as tissue-based.

For experiment [4], the target named is T2, B2 bradykinin receptor. The experiment is described as follows: Binding affinity to B2R in guinea pig ileum membranes. It counts as cell membranes, Membrane.

SMILES strings stand for the structures. Square brackets hold non-standard residues; d marks the D form. Side chains are listed from the residue outwards. Peptide text beside a SMILES is read from it. Oic = O=C(O)[C@@H]1C[C@@H]2CCCC[C@@H]2N1; Hyp = O=C(O)[C@@H]1C[C@@H](O)CN1; dTic = O=C(O)[C@H]1Cc2ccccc2CN1; 2Thi = N[C@@H](Cc1cccs1)C(=O)O; Dap = NC[C@H](N)C(=O)O Bounds are passed on as bounds.

One may read the Ki as a dissociation constant, usually derived from enzyme kinetics or from competition with a known ligand. Low readings indicate higher affinity, high ones lower affinity. As usually defined, the pIC50 is −log10 of the IC50, conventionally taken in molar units. A lower pIC50 goes with a large IC50. What is called IC50 is the midpoint of a concentration-inhibition curve.

Turning to `N=C(N)NCCC[C@H](NC(=O)[C@@H]1C[C@@H]2CCCC[C@@H]2N1C(=O)[C@H]1Cc2ccccc2CN1C(=O)[C@H](CO)NC(=O)[C@H](Cc1cccs1)NC(=O)CNC(=O)[C@@H]1C[C@@H](O)CN1C(=O)[C@@H]1CCCN1C(=O)[C@H](CCCNC(=N)N)NC(=O)[C@@H](CCCNC(=N)N)NC(=O)[C@H](Cc1ccccc1)NC(=O)[C@@H]1CCCN1C(=O)[C@@H](N)Cc1ccc(O)cc1)C(=O)O`, the Ki on Mu-type opioid receptor is 2300 nM; on B2 bradykinin receptor [1], greater than 10000 nM; in experiment [2] it was greater than 10000 nM. At Mu-type opioid receptor, this molecule came in with a pIC50 of 5.29.

As to `CSCC[C@H](NC(=O)[C@H](Cc1ccccc1)NC(=O)[C@@H](C)NC(=O)[C@@H](N)Cc1ccc(O)cc1)C(=O)N[C@H](CCCNC(=N)N)C(=O)N[C@@H](CCCNC(=N)N)C(=O)N1CCC[C@H]1C(=O)N1C[C@H](O)C[C@H]1C(=O)NCC(=O)N[C@@H](Cc1cccs1)C(=O)N[C@@H](CO)C(=O)N1Cc2ccccc2C[C@@H]1C(=O)N1[C@H](C(=O)N[C@@H](CCCNC(=N)N)C(=O)O)C[C@@H]2CCCC[C@@H]21`, the IC50 on B2 bradykinin receptor [3] was 1.8 nM; at Mu-type opioid receptor, 155 nM; in experiment [2], 17000 nM. In addition, the Ki at Mu-type opioid receptor was 70 nM; at B2 bradykinin receptor [1], 5200 nM; in experiment [2] it was 6900 nM.

In the case of `N=C(N)NCCC[C@H](NC(=O)[C@@H]1C[C@@H]2CCCC[C@@H]2N1C(=O)[C@H]1Cc2ccccc2CN1C(=O)[C@H](CO)NC(=O)[C@H](Cc1cccs1)NC(=O)CNC(=O)[C@@H]1C[C@@H](O)CN1C(=O)[C@@H]1CCCN1C(=O)[C@H](CCCNC(=N)N)NC(=O)[C@@H](CCCNC(=N)N)NC(=O)[C@H](Cc1ccccc1)NC(=O)[C@H](Cc1ccccc1)NC(=O)[C@@H]1CCCN1C(=O)[C@@H](N)Cc1ccc(O)cc1)C(=O)O`, the IC50 at B2 bradykinin receptor [3] worked out at 1.9 nM. Also, the Ki on Mu-type opioid receptor was 480 nM; at B2 bradykinin receptor [1], greater than 10000 nM; in experiment [2] it was greater than 10000 nM. At Mu-type opioid receptor, this molecule came in with a pIC50 of 5.97.

As for `C[C@@H](NC(=O)[C@@H](N)Cc1ccc(O)cc1)C(=O)NCC(=O)N[C@@H](Cc1ccccc1)C(=O)N[C@H](CCCNC(=N)N)C(=O)N[C@@H](CCCNC(=N)N)C(=O)N1CCC[C@H]1C(=O)N1C[C@H](O)C[C@H]1C(=O)NCC(=O)N[C@@H](Cc1cccs1)C(=O)N[C@@H](CO)C(=O)N1Cc2ccccc2C[C@@H]1C(=O)N1[C@H](C(=O)N[C@@H](CCCNC(=N)N)C(=O)O)C[C@@H]2CCCC[C@@H]21`, the concentration for half-maximal inhibition (IC50) is 1.7 nM on B2 bradykinin receptor [3], 22.9 nM at Mu-type opioid receptor and 4170 nM in experiment [2]. At B2 bradykinin receptor [1], this molecule yielded a Ki greater than 10000 nM.

For the molecule `C[C@@H](NC(=O)[C@@H](N)Cc1ccc(O)cc1)C(=O)NCC(=O)N[C@@H](Cc1ccccc1)C(=O)NCCC(=O)N[C@H](CCCNC(=N)N)C(=O)N[C@@H](CCCNC(=N)N)C(=O)N1CCC[C@H]1C(=O)N1C[C@H](O)C[C@H]1C(=O)NCC(=O)N[C@@H](Cc1cccs1)C(=O)N[C@@H](CO)C(=O)N1Cc2ccccc2C[C@@H]1C(=O)N1[C@H](C(=O)N[C@@H](CCCNC(=N)N)C(=O)O)C[C@@H]2CCCC[C@@H]21`, the IC50 on Mu-type opioid receptor was 3.09 nM; in experiment [2] it was 91.2 nM.

As to `C[C@@H](NC(=O)[C@@H](N)Cc1ccc(O)cc1)C(=O)NCC(=O)N[C@@H](Cc1ccccc1)C(=O)NCCCCCCCC(=O)N[C@H](CCCNC(=N)N)C(=O)N[C@@H](CCCNC(=N)N)C(=O)N1CCC[C@H]1C(=O)N1C[C@H](O)C[C@H]1C(=O)NCC(=O)N[C@@H](Cc1cccs1)C(=O)N[C@@H](CO)C(=O)N1Cc2ccccc2C[C@@H]1C(=O)N1[C@H](C(=O)N[C@@H](CCCNC(=N)N)C(=O)O)C[C@@H]2CCCC[C@@H]21`, the IC50 at Mu-type opioid receptor was 1.23 nM; in experiment [2], 4.68 nM.

With `C[C@@H](NC(=O)[C@@H](N)Cc1ccc(O)cc1)C(=O)NCC(=O)N[C@@H](Cc1ccccc1)C(=O)NC[C@H](N)C(=O)N[C@H](CCCNC(=N)N)C(=O)N[C@@H](CCCNC(=N)N)C(=O)N1CCC[C@H]1C(=O)N1C[C@H](O)C[C@H]1C(=O)NCC(=O)N[C@@H](Cc1cccs1)C(=O)N[C@@H](CO)C(=O)N1Cc2ccccc2C[C@@H]1C(=O)N1[C@H](C(=O)N[C@@H](CCCNC(=N)N)C(=O)O)C[C@@H]2CCCC[C@@H]21`, at Mu-type opioid receptor, the 50% inhibitory concentration (IC50) was 1.41 nM and the Ki was determined as 0.6 nM.

At Mu-type opioid receptor, `C[C@@H](NC(=O)[C@@H](N)Cc1ccc(O)cc1)C(=O)NCC(=O)N[C@@H](Cc1ccccc1)C(=O)NC[C@H](N)C(=O)NCCC(=O)N[C@H](CCCNC(=N)N)C(=O)N[C@@H](CCCNC(=N)N)C(=O)N1CCC[C@H]1C(=O)N1C[C@H](O)C[C@H]1C(=O)NCC(=O)N[C@@H](Cc1cccs1)C(=O)N[C@@H](CO)C(=O)N1Cc2ccccc2C[C@@H]1C(=O)N1[C@H](C(=O)N[C@@H](CCCNC(=N)N)C(=O)O)C[C@@H]2CCCC[C@@H]21` returned a Ki of 0.5 nM and a pIC50 of 8.94. In experiment [2], this molecule came in with a Ki of 7 nM and a pIC50 of 7.77.

Regarding `C[C@@H](NC(=O)[C@@H](N)Cc1ccc(O)cc1)C(=O)NCC(=O)N[C@@H](Cc1ccccc1)C(=O)NCCCCCCCC(=O)NC[C@H](N)C(=O)N[C@H](CCCNC(=N)N)C(=O)N[C@@H](CCCNC(=N)N)C(=O)N1CCC[C@H]1C(=O)N1C[C@H](O)C[C@H]1C(=O)NCC(=O)N[C@@H](Cc1cccs1)C(=O)N[C@@H](CO)C(=O)N1Cc2ccccc2C[C@@H]1C(=O)N1[C@H](C(=O)N[C@@H](CCCNC(=N)N)C(=O)O)C[C@@H]2CCCC[C@@H]21`, at Mu-type opioid receptor, the IC50 was 0.813 nM and the affinity, expressed as Ki, was 0.3 nM.

On to `C[C@@H](NC(=O)[C@@H](N)Cc1ccc(O)cc1)C(=O)NCC(=O)N[C@@H](Cc1ccccc1)C(=O)NC[C@H](NC(=O)[C@@H]1CCCN1C(=O)[C@H](CCCNC(=N)N)NC(=O)[C@H](N)CCCNC(=N)N)C(=O)NCC(=O)N[C@@H](Cc1cccs1)C(=O)N[C@@H](CO)C(=O)N1Cc2ccccc2C[C@@H]1C(=O)N1[C@H](C(=O)N[C@@H](CCCNC(=N)N)C(=O)O)C[C@@H]2CCCC[C@@H]21`, for which the IC50 at Mu-type opioid receptor is 4.79 nM; in experiment [2], 6.76 nM.

As for `NC(N)=NCCC[C@@H](N)C(=O)N[C@@H](CCCN=C(N)N)C(=O)N1CCC[C@H]1C(=O)N1C[C@H](O)C[C@H]1C(=O)NCC(=O)N[C@@H](Cc1cccs1)C(=O)N[C@@H](CO)C(=O)N1Cc2ccccc2C[C@@H]1C(=O)N1[C@H](C(=O)N[C@@H](CCCN=C(N)N)C(=O)O)C[C@@H]2CCCC[C@@H]21`, the results for the Ki on B2 bradykinin receptor [4] and at B2 bradykinin receptor [1] were 1 nM and greater than 10000 nM, respectively.

In the case of `C[C@@H](NC(=O)[C@@H](N)Cc1ccc(O)cc1)C(=O)NCC(=O)N[C@@H](Cc1ccccc1)C(=O)NC[C@H](NC(=O)[C@H](Cc1cccs1)NC(=O)CNC(=O)[C@@H]1C[C@@H](O)CN1C(=O)[C@@H]1CCCN1C(=O)[C@H](CCCNC(=N)N)NC(=O)[C@H](N)CCCNC(=N)N)C(=O)N1Cc2ccccc2C[C@@H]1C(=O)N1[C@H](C(=O)N[C@@H](CCCNC(=N)N)C(=O)O)C[C@@H]2CCCC[C@@H]21` (H-[dR]RP[Hyp]G[2Thi][Dap]([Phe-Gly-dA-Tyr])[dTic][Oic]R-OH), the IC50 at Mu-type opioid receptor is 15.5 nM; in experiment [2], 0.603 nM.
